Results as given in publication PMC2797363, “Discovery of Novel Proteasome Inhibitors Using a High-Content Cell-Based Screening System” (PLoS ONE, 2009).

Biological target: T1, 26S proteasome (chymotryptic activity, LLVY-AMC; β5 subunit) (Oryctolagus cuniculus, UniProt G1T4Q9)
T1 construct: gene PSMB5; purified 26S proteasomes from rabbit muscle; with other subunits of the 26S proteasome
T1 sequence (G1T4Q9 60-263): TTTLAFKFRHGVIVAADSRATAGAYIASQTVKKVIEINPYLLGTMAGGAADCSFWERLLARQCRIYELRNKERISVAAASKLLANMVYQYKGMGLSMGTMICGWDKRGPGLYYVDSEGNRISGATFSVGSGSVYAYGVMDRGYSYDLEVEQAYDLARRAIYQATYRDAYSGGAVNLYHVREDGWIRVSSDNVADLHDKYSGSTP
Experiment: Suc-LLVY-AMC fluorogenic hydrolysis by purified 26S proteasome, 30 μM compound
Format: biochemical

SMILES: Cn1c(=S)c2[nH]c(SCCN3C(=O)c4ccccc4C3=O)nc2n(C)c1=O [NSC99671, 2-[2-[(1,3-dimethyl-2-oxo-6-sulfanylidene-7H-purin-8-yl)sulfanyl]ethyl]isoindole-1,3-dione]
- Suc-LLVY-AMC fluorogenic hydrolysis by purified 26S proteasome, 30 μM compound: NSC99671 displayed a moderate inhibitory effect
